From EP0561850B1, “7-SUBSTITUTED-6-FLUORO-1,4-DIHYDRO-4-OXO-QUINOLINE-3-CARBOXYLIC ACID COMPOUNDS USEFUL AS ANTIBACTERIAL AGENTS” (priority 1990, dated 1992)
≈ marks a conversion by molar mass, not a printed value. Structures can show the parent of a compound that is named as a salt. Where two headings read alike, the source gives them in different places.

Legend:
[1] = test system: Quinoline Resistant MRSAs (QRMRSAs); experiment: In vitro antimicrobial activity against quinoline resistant MRSA; assay type: cell-based; conditions: Staphylococcus aureus; QRMRSA (8 C.I.), C.I. = Clinical Isolates
Description: (§1) For aerobic microorganisms, a cation supplemented Mueller Hinton Broth (BBL) was used whereas the Anaerobe Broth MIC (Difco) was used for anaerobic microorganisms. An agar Dilution method was employed for certain aerobic microorganisms using Mueller Hinton II Agar (BBL) and a Cathra multipoint inoculating device which delivered 10^4 cfu/spot of the inoculum on the agar surface. MICs were read after 16-18 hours and 48 hours of incubation in case of microbes growing aerobically and anaerobically respectively.

[2] = test system: Methicillin Resistant S. aureus (MRSAs); experiment: In vitro antimicrobial activity against methicillin resistant S. aureus; assay type: cell-based; conditions: Staphylococcus aureus; MRSA (6 C.I.), C.I. = Clinical Isolates
Description: as §1

[3] = test system: Staphylococcus aureus S-127; experiment: In vitro antimicrobial activity against aerobes, broth microdilution (NCCLS 1985); assay type: cell-based; conditions: S127, read after 16-18 hours
Description: as §1

[4] = test system: Propionobacterium acne AN-17; experiment: In vitro antimicrobial activity against anaerobes, broth microdilution; assay type: cell-based
Description: as §1, with “The compounds of the invention display antibacterial activity when tested by the broth microdilution method as described in the NCCLS publications M7-A, M11-A and M17-P of the year 1985. For” for “For”
(§2) By use of the above method, the following minimum inhibitory concentration values (MICs in µg/ml) were obtained: Table 1, against microbes growing aerobically; Table 2, against microbes growing anaerobically; Table 3, against methicillin resistant Staphylococcus aureus and quinoline resistant-methicillin resistant Staphylococcus aureus.

[5] = test system: Peptostreptococcus asaccharolyticus AN-16; experiment: as above; assay type: cell-based; conditions: Peptoniphilus asaccharolyticus
Description: as §1, with “The compounds of the invention display antibacterial activity when tested by the broth microdilution method as described in the NCCLS publications M7-A, M11-A and M17-P of the year 1985. For” for “For”
as §2

[6] = test system: Fusobacterium mortiferum AN-13; experiment: as above; assay type: cell-based
Description: as §1, with “The compounds of the invention display antibacterial activity when tested by the broth microdilution method as described in the NCCLS publications M7-A, M11-A and M17-P of the year 1985. For” for “For”
as §2

[7] = test system: Streptococcus intermedius AN-19; experiment: as above; assay type: cell-based
Description: as §1, with “The compounds of the invention display antibacterial activity when tested by the broth microdilution method as described in the NCCLS publications M7-A, M11-A and M17-P of the year 1985. For” for “For”
as §2

Bacteroides fagilis AN-2 = experiment: as above; assay type: cell-based
Description: as §1, with “The compounds of the invention display antibacterial activity when tested by the broth microdilution method as described in the NCCLS publications M7-A, M11-A and M17-P of the year 1985. For” for “For”
as §2

Sa 127M = experiment: Microbroth dilution (MHB) method, NCCLS M7-A2; assay type: cell-based, Staphylococcus aureus; conditions: Staphylococcus aureus, inoculum 5 x 10^5 cfu/ml, 35 °C/18 hr, read-out: MIC
Description: (§3) The test organisms were obtained from ATCC and clinical laboratories. The 96-well microtitre plates containing […] of serially diluted test compounds in Mueller Hinton Broth (MHB) (conc. range 64-0.03 µg/ml) were inoculated with […] of bacterial suspension in MHB so that an inoculum size of 5 x 10^5 cfu/ml was achieved.
(§4) EC. (S- 63): Eschericia coli Ecl. (S- 130): Enterobacter cloacae Pa. (S- 67): Pseudomonas aeruginosa Kp. (S- 80): Klebsiella pneumoniae Pr.
(§5) Microbroth Dilution (MHB) method; Inoculum, 5 x 10^5 cfu/ml; Incubation 35 °C/18 hr

[8] = test system: Providencia rettgeri S-121; experiment: Microbroth dilution (MHB) method, NCCLS M7-A2; assay type: cell-based; conditions: Providencia rettgeri, S121, Pr S-121, inoculum 5 x 10^5 cfu/ml, 35 °C/18 hr, read-out: MIC
Description: as §3, §4, §5

[9] = test system: Klebsiella pneumoniae S-80; experiment: Microbroth dilution (MHB) method, NCCLS M7-A2; assay type: cell-based; conditions: Klebsiella pneumoniae, S80
Description: as §3, §4, §5

[10] = test system: Pseudomonas aeruginosa S-67; experiment: Microbroth dilution (MHB) method, NCCLS M7-A2; assay type: cell-based; conditions: Pseudomonas aeruginosa, S67
Description: as §3, §4, §5

Eschericia coli S-63 = experiment: Microbroth dilution (MHB) method, NCCLS M7-A2; assay type: cell-based; conditions: Ec S-63, inoculum 5 x 10^5 cfu/ml, 35 °C/18 hr, read-out: MIC
Description: as §3, §4, §5

[11] = Propionobacterium acne AN-17, anaerobes, read after 48 hours, read-out: MIC
[12] = AN16, Peptostreptococcus asaccharolyticus AN-16, anaerobes, read after 48 hours, read-out: MIC
[13] = AN13, Fusobacterium mortiferum AN-13, anaerobes, read after 48 hours, read-out: MIC
[14] = AN19, Streptococcus intermedius AN-19, anaerobes, read after 48 hours, read-out: MIC
[15] = AN2, Bacteroides fagilis AN-2, anaerobes, read after 48 hours, read-out: MIC

## NC1CCN(c2nc3c(cc2F)c(=O)c(C(=O)O)cn3-c2ccc(F)cc2F)C1 (centres unmarked) [Tosufloxacin, reference compound]
[1]
  MIC: 2 to 16 µg/mL (≈ 4.95 to 39.6 µM)
[2]
  MIC: 0.015 to 0.03 µg/mL (≈ 0.0371 to 0.0742 µM)

## Nc1c(F)c(N2C[C@@H](N)[C@@H](n3ccnn3)C2)c(F)c2c1c(=O)c(C(=O)O)cn2-c1ccc(F)cc1F (relative stereo) [Example 19, 5-Amino-7-[cis-3-amino-4-(1,2,3-triazol-1-yl)-pyrrolidin-1-yl]-1-(2,4-difluorophenyl)-6,8-difluoro-1,4-dihydro-4-oxo-quinoline-3-carboxylic acid]
[3]
  MIC: 0.5 µg/mL (≈ 0.993 µM)

## Nc1c(F)c(N2CC[C@H](n3ccnn3)C2)c(F)c2c1c(=O)c(C(=O)O)cn2-c1ccc(F)cc1F [Example 15]
[3]
  MIC: 0.015 µg/mL (≈ 0.0307 µM)
[1]
  MIC: 1 to 16 µg/mL (≈ 2.05 to 32.8 µM)
[2]
  MIC: 0.008 to 0.015 µg/mL (≈ 0.0164 to 0.0307 µM)

## CCOC(=O)c1cn(C2CC2)c2nc(N3C[C@@H](N)[C@@H](n4ccnn4)C3)c(F)cc2c1=O (relative stereo) [Example 6, Ethyl 7-[cis-3-amino-4-(1,2,3-triazol-1-yl)pyrrolidin-1-yl] -1-cyclopropyl-6-fluoro-1,4-dihydro-4-oxo-1,8-naphthyridine-3-carboxylate]
[3]
  MIC: ≤ 0.03 µg/mL

## Nc1c(F)c(N2CC[C@@H](n3ccnn3)C2)c(F)c2c1c(=O)c(C(=O)O)cn2C1CC1 [Example 13, 5-Amino-1-cyclopropyl-6,8-difluoro-7-[3R-(1,2,3-triazol-1-yl)-pyrrolidin-1-yl)-1,4-dihydro-4-oxo-quinoline-3-carboxylic acid]
[3]
  MIC: 0.008 µg/mL (≈ 0.0192 µM)

## Nc1c(F)c(N2CCC(n3ccnn3)C2)c(F)c2c1c(=O)c(C(=O)O)cn2C1CC1 (centres unmarked) [Example 11, 5-Amino-1-cyclopropyl-6,8-difluoro-7-[3-(1,2,3-triazol-1-yl)-pyrrolidin-1-yl]-1,4-dihydro-4-oxo-quinoline-3-carboxylic acid]
[1]
  MIC: 0.5 to 2 µg/mL (≈ 1.2 to 4.8 µM)
[4]; [11]
  MIC: ≤ 0.03 µg/mL
[5]; [12]
  MIC: 0.06 µg/mL (≈ 0.144 µM)
[6]; [13]
  MIC: 0.06 µg/mL (≈ 0.144 µM)
[7]; [14]
  MIC: 0.06 µg/mL (≈ 0.144 µM)
Bacteroides fagilis AN-2; [15]
  MIC: 1 µg/mL (≈ 2.4 µM)
[2]
  MIC: 0.004 to 0.008 µg/mL (≈ 0.00961 to 0.0192 µM)

## CCOC(=O)c1cn(C2CC2)c2nc(N3CC[C@H](n4ccnn4)C3)c(F)cc2c1=O [Example 4, Ethyl 1-cyclopropyl-6-fluoro-7-[3(S)-(1,2,3-triazol-1-yl)pyrrolidin-1-yl]-1,4-dihydro-4-oxo-1,8-naphthyridine-3-carboxylate]
[3]
  MIC: ≤ 0.06 µg/mL

## Nc1c(F)c(N2CC[C@H](n3ccnn3)C2)c(F)c2c1c(=O)c(C(=O)O)cn2C1CC1 [Example 12, 5-Amino-1-cyclopropyl-6,8-difluoro-7-[3S-(1,2,3-triazol-1-yl)-pyrrolidin-1-yl]-1,4-dihydro-4-oxo-quinoline-3-carboxylic acid]
[3]
  MIC: 0.008 µg/mL (≈ 0.0192 µM)
[1]
  MIC: 0.5 to 2 µg/mL (≈ 1.2 to 4.8 µM)
[4]; [11]
  MIC: 0.06 µg/mL (≈ 0.144 µM)
[5]; [12]
  MIC: 0.06 µg/mL (≈ 0.144 µM)
[6]; [13]
  MIC: 0.06 µg/mL (≈ 0.144 µM)
[7]; [14]
  MIC: 0.12 µg/mL (≈ 0.288 µM)
Bacteroides fagilis AN-2; [15]
  MIC: 1 µg/mL (≈ 2.4 µM)
[2]
  MIC: 0.004 to 0.008 µg/mL (≈ 0.00961 to 0.0192 µM)

## N[C@@H]1CN(c2c(F)cc3c(=O)c(C(=O)O)cn(C4CC4)c3c2F)C[C@@H]1n1ccnn1 (relative stereo) [Example 17, 7-[cis-3-Amino-4-(1,2,3-triazol-1-yl)-pyrrolidin-1-yl]-1-cyclopropyl-6,8-difluoro-1,4-dihydro-4-oxo-quinoline-3-carboxylic acid]
[3]
  MIC: 1 µg/mL (≈ 2.4 µM)

## Nc1c(F)c(N2CCC(n3ccnn3)C2)c(F)c2c1c(=O)c(C(=O)O)cn2-c1ccc(F)cc1F (centres unmarked) [Example 14, 5-Amino-1-(2,4-difluorophenyl)-6,8-difluoro-7-[3-(1,2,3-triazol-1-yl)pyrrolidin-1-yl]-1,4-dihydro-4-oxo-quinoline-3 carboxylic acid]
[3]
  MIC: ≤ 0.015 µg/mL
[1]
  MIC: 1 to 8 µg/mL (≈ 2.05 to 16.4 µM)
[4]; [11]
  MIC: 0.06 µg/mL (≈ 0.123 µM)
[5]; [12]
  MIC: 0.12 µg/mL (≈ 0.246 µM)
[6]; [13]
  MIC: 2 µg/mL (≈ 4.09 µM)
[7]; [14]
  MIC: 0.06 µg/mL (≈ 0.123 µM)
Bacteroides fagilis AN-2; [15]
  MIC: > 64 µg/mL
[2]
  MIC: 0.008 to 0.03 µg/mL (≈ 0.0164 to 0.0614 µM)

## Nc1c(F)c(N2C[C@@H](N)[C@@H](n3ccnn3)C2)c(F)c2c1c(=O)c(C(=O)O)cn2C1CC1 (relative stereo) [Example 18, 5-Amino-7-[cis-3-amino-4-(1,2,3-triazol-1-yl)-pyrrolidin-1-yl]-1-cyclopropyl-6,8-difluoro-1,4-dihydro-4-oxo-quinoline-3-carboxylic acid]
[3]
  MIC: 0.5 µg/mL (≈ 1.16 µM)

## C[C@@H]1CN(c2c(F)c(N)c3c(=O)c(C(=O)O)cn(C4CC4)c3c2F)C[C@H](C)N1 [Sparfloxacin, reference compound]
[3]
  MIC: 0.06 µg/mL (≈ 0.153 µM)
[1]
  MIC: 4 to 16 µg/mL (≈ 10.2 to 40.8 µM)
[4]; [11]
  MIC: 1 µg/mL (≈ 2.55 µM)
[5]; [12]
  MIC: 4 µg/mL (≈ 10.2 µM)
[6]; [13]
  MIC: 0.5 µg/mL (≈ 1.27 µM)
[7]; [14]
  MIC: 0.5 µg/mL (≈ 1.27 µM)
Bacteroides fagilis AN-2; [15]
  MIC: 2 µg/mL (≈ 5.1 µM)
[2]
  MIC: 0.03 to 0.12 µg/mL (≈ 0.0765 to 0.306 µM)

## Nc1c(F)c(N2CC[C@@H](n3ccnn3)C2)c(F)c2c1c(=O)c(C(=O)O)cn2-c1ccc(F)cc1F [Example 16, 5-Amino-1-(2,4-difluorophenyl)-6,8-difluoro-7-[3R-(1,2,3-triazol-1-yl)-pyrrolidin-1-yl]-1,4-dihydro-4-oxo-quinoline-3-carboxylic acid]
[3]
  MIC: 0.015 µg/mL (≈ 0.0307 µM)

## O=C(O)c1cn(C2CC2)c2nc(N3CC[C@H](n4ccnn4)C3)c(F)cc2c1=O [Example 5]
[3]
  MIC: ≤ 0.03 µg/mL

## O=C(O)c1cn(C2CC2)c2cc(N3CCNCC3)c(F)cc2c1=O [Ciprofloxacin, reference compound]
Sa 127M
  MIC: 8 µg/mL (≈ 24.1 µM)
[4]; 48 h
  MIC: 0.5 µg/mL (≈ 1.51 µM)
[5]; AN16, 48 h
  MIC: 4 µg/mL (≈ 12.1 µM)
[6]; Fusobacterium mortiferum, AN13, 48 h
  MIC: 16 µg/mL (≈ 48.3 µM)
[7]; Streptococcus intermedius, AN19, 48 h
  MIC: 1 µg/mL (≈ 3.02 µM)
Bacteroides fagilis AN-2; Bacteroides, AN2, 48 h
  MIC: 16 µg/mL (≈ 48.3 µM)
[8]
  MIC: 0.015 µg/mL (≈ 0.0453 µM)
[9]
  MIC: 0.015 µg/mL (≈ 0.0453 µM)
[10]
  MIC: 0.25 µg/mL (≈ 0.754 µM)
Eschericia coli S-63
  MIC: ≤ 0.008 µg/mL

## O=C(O)c1cn(-c2ccc(F)cc2)c2c(F)c(N3CCC(n4ccnn4)C3)c(F)cc2c1=O (centres unmarked) [Example 2, 6,8-Difluoro-1-(4-fluorophenyl)-7-[3-(1,2,3-triazol-1-yl)-pyrrolidin-1-yl]-1,4-dihydro-4-oxo-quinoline-3-carboxylic acid]
[3]
  MIC: ≤ 0.06 µg/mL

## NC1CN(c2nc3c(cc2F)c(=O)c(C(=O)O)cn3C2CC2)CC1n1ccnn1 (stereo not drawn) [Example 7, 7-[cis-3-Amino-4-(1,2,3-triazol-1-yl)pyrrolidin-1-yl]-1-cyclopropyl-6-fluoro-1,4-dihdyro-4-oxo-1,8-naphthyridine-3-carboxylic acid hydrochloride]
[3]
  MIC: 0.008 µg/mL
